Experimental data: patent US11091781B2, “Carbon fixation systems and methods” (priority 2015, dated 2021)

Legend:
R. eutropha [1] = experiment: Spot assay of R. eutropha in the presence of Co^2+; type: cell-based, Ralstonia eutropha; conditions: estimated by comparison at 1/100 dilution, FIG. 18, read-out: half maximal inhibitory concentration, IC50 (concentration of Co^2+ toxic to R. eutropha)
Experimental: (§1) The procedure for spot assays was performed by diluting 100 μL of culture grown under different conditions by 1:10 in fresh minimal medium, which was vortexed. Three to four serial 10-fold dilutions were made and 2 μL of each dilution was spotted on rich broth agar plates and allowed to dry. Plates were typically grown for 2 days at 30° C. before imaging. The half maximal inhibitory concentration (IC50) was estimated based on the comparison at 1/100 dilution. The areas of colonies at certain conditions were then compared with that of control samples.
FIG. 17 presents, cyclic voltammograms of Co^2+ in the phosphate buffer (pH=7), a pre-wave to the catalytic water-splitting current corresponds to the oxidation of Co^2+ to Co^3+, which drives deposition of the catalyst. […] As noted previously, the self-healing property of CoPi alloy is derived from this interplay of the potential at which OER occurs vs. the potential at which the catalyst deposits. In concert, the Co—P and CoPi catalysts maintain extremely low concentrations of Co^2+ in solution through activity derived from the self-healing process. Inductively coupled plasma mass spectrometry (ICP-MS) analysis of a Co-P|CoPi catalysts system (Eappl=2.2 V) confirm that sub-μM levels of Co^2+ are present in solution after 24 h. […]

[2] = target: membrane-bound hydrogenases in R. eutropha (Cupriavidus necator, UniProt P31891); conditions: H2 as substrate; cited from earlier work
R. eutropha [3] = type: cell-based, Ralstonia eutropha; conditions: spot assay at different isopropanol concentrations, FIG. 25
Experimental: as §1
FIG. 25 is a photograph of cell cultures taken for different isopropanol concentration.

[4] = system: H16 and ROS-resistant BC4 strains of R. eutropha; experiment: Spot assay of ROS tolerance with paraquat as ROS-inducer; type: cell-based, Ralstonia eutropha; conditions: BC4 vs wild-type H16, FIG. 26
Experimental: as §1
A ROS-resistant variant of R. eutropha, evolved from a reactor including a stainless steel CoPi water-splitting electrode pair after 11 consecutive days of operation at an applied voltage potential of 2.3 V with a H2O2 generation rate of ˜0.6 μM/min. […] However, there was minimal difference noted in ηelec for the current reactor systems using the Co-P|CoPi electrode pairs, confirming minimal concentrations of ROS in the reactors. Of course, it should be understood that BC4 may be used in any reactor system, and may also be beneficial for use in helping systems achieve a high ηelec where ROS are present in larger concentrations.

Chain of membrane-bound hydrogenases in R. eutropha (P31891 1-603 limits assumed): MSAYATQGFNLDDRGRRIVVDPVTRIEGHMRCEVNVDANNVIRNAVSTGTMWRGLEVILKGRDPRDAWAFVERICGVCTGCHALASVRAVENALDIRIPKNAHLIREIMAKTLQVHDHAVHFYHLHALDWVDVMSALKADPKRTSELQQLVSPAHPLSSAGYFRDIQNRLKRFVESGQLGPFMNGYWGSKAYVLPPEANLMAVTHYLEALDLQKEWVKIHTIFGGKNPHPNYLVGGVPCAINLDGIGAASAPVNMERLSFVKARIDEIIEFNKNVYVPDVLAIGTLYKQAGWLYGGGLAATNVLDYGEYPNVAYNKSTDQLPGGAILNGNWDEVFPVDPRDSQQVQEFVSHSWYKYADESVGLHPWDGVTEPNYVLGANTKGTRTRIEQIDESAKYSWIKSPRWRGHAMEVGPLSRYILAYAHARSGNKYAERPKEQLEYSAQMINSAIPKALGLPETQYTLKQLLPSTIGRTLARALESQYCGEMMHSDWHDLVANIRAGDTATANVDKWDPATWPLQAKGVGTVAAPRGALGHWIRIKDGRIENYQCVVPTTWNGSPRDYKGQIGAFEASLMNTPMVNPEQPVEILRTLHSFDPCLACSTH
Chain of membrane-bound hydrogenases in R. eutropha (P31892 44-360 partner): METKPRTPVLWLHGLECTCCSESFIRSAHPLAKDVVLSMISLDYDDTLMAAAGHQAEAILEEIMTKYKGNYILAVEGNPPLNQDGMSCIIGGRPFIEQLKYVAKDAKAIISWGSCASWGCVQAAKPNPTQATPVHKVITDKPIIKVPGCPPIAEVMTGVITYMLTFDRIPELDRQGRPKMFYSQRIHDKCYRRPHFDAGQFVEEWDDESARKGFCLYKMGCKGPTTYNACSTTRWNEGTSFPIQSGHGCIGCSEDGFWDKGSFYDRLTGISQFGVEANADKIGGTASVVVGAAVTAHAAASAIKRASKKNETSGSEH

SMILES: [Co+2] [Co^2+]
- IC50 (R. eutropha [1]): ~25 µM

SMILES: [HH] [H2, hydrogen]
- Michaelis constant [2]: about 6 μM

SMILES: CC(C)O [isopropanol]
- tolerance of R. eutropha towards isopropanol (R. eutropha [3]): demonstrates tolerance

SMILES: C[n+]1ccc(-c2cc[n+](C)cc2)cc1 [paraquat]
- IC50 of paraquat for BC4 compared with wild type [4]: almost one order of magnitude higher than that of wild type
